# Patent US10143681B2, “Factor XIa inhibitors” (MERCK SHARP & DOHME CORP., priority 2016, dated 2018)
# Experiments:
# [1] = biological target: human Factor XIa (Homo sapiens (Human), UniProt P03951); test: Factor XIa Assay; format: biochemical; conditions: for IC50: human Factor XIa 0.04 nM, 30 min pre-incubation at 25° C., substrate GPR-AFC, read-out: FXIa IC50; for inhibition at 1 µM: @ 1000 nM compound, read-out: FXIa % Inh. @ 1000 nM
# Experimental: (§1) The effectiveness of a compound of the present invention as an inhibitor of Coagulation Factor XIa can be determined using a relevant purified serine protease, and an appropriate synthetic substrate. The rate of hydrolysis of the chromogenic or fluorogenic substrate by the relevant serine protease was measured both in the absence and presence of compounds of the present invention. Assays were conducted at room temperature or at 37° C. […] A decrease in the rate of fluorescence change in the presence of inhibitor is indicative of enzyme inhibition. Such methods are known to one skilled in the art. The results of this assay are expressed as the half-maximal inhibitory concentrations (IC50), or the inhibitory constant, Ki.
# Compounds were pre-incubated for 30 minutes at 25° C. with human (0.04 nM) Factor XIa in 50 mM HEPES buffer with 150 mM sodium chloride, 5 mM calcium chloride, 0.1% PEG 8000, pH 7.4. Factor XIa enzymatic activity was determined by addition of the substrate glycine-proline-arginine-7-amido-4-trifluoromethylcoumarin (GPR-AFC) and measurement of the fluorescence at 400/505 nm after a 60 minute incubation at 25° C. The % inhibition for each data point was calculated from the data and analyzed using the log (inhibitor) vs. response four parameters equation to determine the half-maximal inhibitory concentrations (IC50). The IC50 were converted to equilibrium inhibitory constants (Ki) using the Cheng-Prusoff equation.
# [2] = biological target: Human plasma kallikrein (Homo sapiens (Human), UniProt P03952); test: Kallikrein Assay; format: biochemical; conditions: purified Human plasma kallikrein 0.5 nM, substrate Acetyl-K-P-R-AFC; read-out: P. KLK IC50
# Sequence of Human plasma kallikrein (P03952 391-638): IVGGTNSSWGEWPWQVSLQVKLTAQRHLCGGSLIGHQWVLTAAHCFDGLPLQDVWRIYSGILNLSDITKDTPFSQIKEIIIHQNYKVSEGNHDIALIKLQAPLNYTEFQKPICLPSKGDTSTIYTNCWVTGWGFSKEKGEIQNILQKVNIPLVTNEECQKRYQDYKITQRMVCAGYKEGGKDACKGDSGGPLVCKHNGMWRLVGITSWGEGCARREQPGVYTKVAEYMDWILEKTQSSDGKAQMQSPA
# Sequence of Human plasma kallikrein (P03952 20-390 partner): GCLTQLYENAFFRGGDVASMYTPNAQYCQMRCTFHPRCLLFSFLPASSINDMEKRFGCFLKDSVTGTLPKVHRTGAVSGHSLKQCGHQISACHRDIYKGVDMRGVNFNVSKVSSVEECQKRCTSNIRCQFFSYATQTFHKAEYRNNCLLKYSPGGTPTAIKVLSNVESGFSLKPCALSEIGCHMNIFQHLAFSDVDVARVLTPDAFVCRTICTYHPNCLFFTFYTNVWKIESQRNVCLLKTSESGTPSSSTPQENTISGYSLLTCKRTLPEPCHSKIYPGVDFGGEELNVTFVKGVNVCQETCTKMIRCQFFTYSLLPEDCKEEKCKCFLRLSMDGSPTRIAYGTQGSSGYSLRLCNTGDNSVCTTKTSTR
# Experimental: as §1, with “Kallikrein” for “Coagulation Factor XIa”
# Kallikrein determinations were made in 50 mM HEPES buffer at pH 7.4 containing 150 mM NaCl, 5 mM CaCl2, and 0.1% PEG 8000 (polyethylene glycol; Fisher Scientific). Determinations were made using purified Human plasma kallikrein at a final concentration of 0.5 nM (Enzyme Research Laboratories) and the synthetic substrate, Acetyl-K-P-R-AFC (Sigma # C6608) at a concentration of […].
# Times required to achieve equilibration between enzyme and inhibitor were determined in control experiments. The reactions were performed under linear progress curve conditions and fluorescence increase measured at 405 Ex/510 Em nm. […] IC50 was determined by inflection point from a four parameter logistic curve fit. Ki was calculated using the Cheng Prusoff equation, Ki=IC50/(1+([S]/Km)).
# [3] = system: Human plasma (intrinsic coagulation cascade); test: Activated Partial Thromboplastin Time (aPTT) Assay; conditions: concentration that causes a 50% (1.5×) increase of clot time over vehicle
# Experimental: Activated partial thromboplastin time (aPTT) is a clotting test that measures the intrinsic coagulation cascade. The test is performed in sodium citrated plasma. Human plasma is made by collecting blood from healthy donors of both genders into Na citrate tubes (Sarstedt coagulation 9NC/10 ml). Blood is centrifuged at 1500×g and the plasma is collected. aPTT is checked on each individual donor and those within the normal range (28-40 seconds) are pooled, aliquoted, and stored at −80 C. Test samples are prepared by spiking inhibitors or vehicle into plasma. These spiked samples are then run on a coagulation analyzer (STA-R Evolution, Stago Diagnostica). In general, the analyzer performs the following steps: Factor XII is activated by addition of ellagic acid (Pacific Hemostasis), and then time to clot is measured after re-calcification of the sample. Inhibition of FXI will cause aPTT clot time to be prolonged. The data is expressed as percent increase over vehicle control clot time and the concentration that causes a 50% (1.5×) percent increase of clot time are reported.
# Sequence of human Factor XIa (P03951 388-625): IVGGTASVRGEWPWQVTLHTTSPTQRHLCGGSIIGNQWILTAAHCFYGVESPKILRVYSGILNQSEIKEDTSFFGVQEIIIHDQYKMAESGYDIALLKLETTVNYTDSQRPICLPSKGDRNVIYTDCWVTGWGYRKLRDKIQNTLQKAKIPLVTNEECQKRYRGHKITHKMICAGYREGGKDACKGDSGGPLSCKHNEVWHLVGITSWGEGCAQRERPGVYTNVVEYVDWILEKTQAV
# Sequence of human Factor XIa (P03951 19-387 partner): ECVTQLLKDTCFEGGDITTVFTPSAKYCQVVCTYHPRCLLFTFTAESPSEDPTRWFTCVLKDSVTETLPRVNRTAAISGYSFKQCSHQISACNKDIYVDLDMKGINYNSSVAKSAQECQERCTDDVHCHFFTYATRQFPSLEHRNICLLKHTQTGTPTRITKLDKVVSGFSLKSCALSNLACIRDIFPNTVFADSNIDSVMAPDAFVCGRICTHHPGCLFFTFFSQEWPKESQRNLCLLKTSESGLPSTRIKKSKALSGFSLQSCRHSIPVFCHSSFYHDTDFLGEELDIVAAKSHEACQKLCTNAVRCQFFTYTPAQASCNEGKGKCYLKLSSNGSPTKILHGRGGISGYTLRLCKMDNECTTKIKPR
IC50 [1],IC50 [2],inhibition at 1 µM [1],SMILES,aPTT (1.5x) [3]
3.3 nM,77.8 nM,–,"CC1CC(CC(C(=O)Nc2ccc(C(=O)O)cc2)c2ccc(-c3c(C(F)(F)F)ccc(Cl)c3F)c[n+]2[O-])C1 (single isomer, unassigned) [Example 75, 2-(1-((4-carboxyphenyl)amino)-3-(3-methylcyclobutyl)-1-oxopropan-2-yl)-5-(3-chloro-2-fluoro-6-(trifluoromethyl)phenyl) pyridine 1-oxide]",–
293 nM,–,–,"O=C(O)c1ccc(NC(=O)C(CC2CC2)c2ccc(-c3cc(Cl)ccc3C(F)F)c[n+]2[O-])cc1 (single isomer, unassigned) [Example 28, (S)- or (R)-2-(1-((4-carboxyphenyl)amino)-3-cyclopropyl-1-oxopropan-2-yl)-5-(5-chloro-2-(difluoromethyl)phenyl)pyridine 1-oxide]",>100 µM
> 1000 nM,–,30%,"O=C(O)c1ccc(NC(=O)C(CC2CC2)c2ccc(-c3cc(Cl)ccc3OC(F)F)c[n+]2[O-])cc1 (single isomer, unassigned) [Example 6, (S)- or (R)-4-[(2-{5-[5-chloro-2-(difluoromethoxy)phenyl]-1-oxidopyridin-2-yl}-3-cyclopropylpropanoyl)amino] benzoic acid]",>100 µM
100 nM,–,–,"O=C(O)c1ccc(NC(=O)C(CC2CCCC2)c2ccc(-c3c(OC(F)F)ccc(Cl)c3F)c[n+]2[O-])cc1 (single isomer, unassigned) [Example 18, (S)- or (R)-4-[(2-{5-[3-chloro-6-(difluoromethoxy)-2-fluorophenyl]-1-oxidopyridin-2-yl}-3-cyclopentylpropanoyl)amino] benzoic acid]",>100 µM
0.6 nM,7.1 nM,–,"O=C(O)c1ccc(NC(=O)C(CC2CC2C(F)F)c2ccc(-c3c(C(F)F)ccc(Cl)c3F)c[n+]2[O-])cc1 (single isomer, unassigned) [Example 89, 2-(1-((4-carboxyphenyl)amino)-3-(2-(difluoromethyl)cyclopropyl)-1-oxopropan-2-yl)-5-(3-chloro-6-(difluoromethyl)-2-fluorophenyl)pyridine-1-oxide]",–
968 nM,–,–,"CCOc1ccc(Cl)c(F)c1-c1ccc(C(CC2CC2)C(=O)Nc2ccc(C(=O)O)cc2)[n+]([O-])c1 (single isomer, unassigned) [Example 8, (S)- or (R)-4-({2-[5-(3-chloro-6-ethoxy-2-fluorophenyl)-1-oxidopyridin-2-yl]-3-cyclopropylpropanoyl}amino) benzoic acid]",>100 µM
27.9 nM,–,–,"O=C(O)c1ccc(NC(=O)C(CC2CC2F)c2ccc(-c3c(C(F)F)ccc(Cl)c3F)c[n+]2[O-])cc1 (single isomer, unassigned) [Example 91, 2-(1-((4-carboxyphenyl)amino)-3-(2-fluorocyclopropyl)-1-oxopropan-2-yl)-5-(3-chloro-6-(difluoromethyl)-2-fluorophenyl)pyridine 1-oxide]",5.93 µM
–,81 nM,–,"O=C1CCC(CC(C(=O)Nc2ccc(C(=O)O)cc2)c2ccc(-c3c(OC(F)F)ccc(Cl)c3F)c[n+]2[O-])CC1 (single isomer, unassigned) [Example 33]",–
9.9 nM,69.8 nM,–,"Cc1cc(NC(=O)C(CC2CC2)c2ccc(-c3c(C(F)F)ccc(Cl)c3F)c[n+]2[O-])ccc1C(=O)O (single isomer, unassigned) [Example 122, 2-(1-((4-carboxy-3-methylphenyl)amino)-3-cyclopropyl-1-oxopropan-2-yl)-5-(3-chloro-6-(difluoromethyl)-2-fluorophenyl)pyridine 1-oxide]",–
> 1000 nM,–,33%,"CC(C)Oc1ccc(Cl)c(F)c1-c1ccc(C(CC2CC2)C(=O)Nc2ccc(C(=O)O)cc2)[n+]([O-])c1 (single isomer, unassigned) [Example 16, (S)- or (R)-4-[(2-{5-[3-chloro-2-fluoro-6-(1-methylethoxy)phenyl]-1-oxidopyridin-2-yl}-3-cyclopropylpropanoyl)amino] benzoic acid]",>100 µM
0.38 nM,–,–,"C[C@@H]1C[C@H]1C[C@@H](C(=O)Nc1ccc(C(=O)O)cc1)c1ccc(-c2c(OC(F)F)ccc(Cl)c2F)c[n+]1[O-] (single isomer, unassigned) [Example 56]",1.34 µM
24 nM,–,–,"CC(C)Oc1ccc(Cl)c(F)c1-c1ccc(C(CC2CC2)C(=O)Nc2ccc(C(=O)O)cc2)[n+]([O-])c1 (single isomer, unassigned) [Example 17, (R)- or (S)-4-[(2-{5-[3-chloro-2-fluoro-6-(1-methylethoxy)phenyl]-1-oxidopyridin-2-yl}-3-cyclopropylpropanoyl)amino] benzoic acid]",>100 µM
3.2 nM,35 nM,–,"C[C@]1(O)CC[C@@H](CC(C(=O)Nc2ccc(C(=O)O)cc2)c2ccc(-c3c(OC(F)F)ccc(Cl)c3F)c[n+]2[O-])CC1 (single isomer, unassigned) [Example 40, 2-(1-((4-carboxyphenyl)amino)-3-((1s,4s)-4-hydroxy-4-methylcyclohexyl)-1-oxopropan-2-yl)-5-(3-chloro-6-(difluoromethoxy)-2-fluorophenyl)pyridine 1-oxide]",–
1.1 nM,5.3 nM,–,"O=C(O)c1ccc(NC(=O)C(CC2CC2C(F)F)c2ccc(-c3c(C(F)F)ccc(Cl)c3F)c[n+]2[O-])cc1 (single isomer, unassigned) [Example 90, 2-(1-((4-carboxyphenyl)amino)-3-(2-(difluoromethyl)cyclopropyl)-1-oxopropan-2-yl)-5-(3-chloro-6-(difluoromethyl)-2-fluorophenyl)pyridine 1-oxide]",–
39 nM,–,–,"O=C(O)c1ccc(NC(=O)[C@@H](CC2CCC2)c2ccc(-c3c(C(F)F)ccc(Cl)c3F)c[n+]2[O-])cc1 (mixture of isomers) [Example 3, (S)- and (R)-2-(1-((4-Carboxyphenyl)amino)-3-cyclobutyl-1-oxopropan-2-yl)-5-(3-chloro-6-(difluoromethyl)-2-fluorophenyl)pyridine 1-oxide]",>100 µM
0.61 nM,–,–,"CC1CCC1CC(C(=O)Nc1ccc(C(=O)O)cc1)c1ccc(-c2c(OC(F)F)ccc(Cl)c2F)c[n+]1[O-] (single isomer, unassigned) [Example 105, 2-(1-((4-carboxyphenyl)amino)-3-(2-methylcyclobutyl)-1-oxopropan-2-yl)-5-(3-chloro-6-(difluoromethoxy)-2-fluorophenyl)pyridine 1-oxide]",1.13 µM
–,37.6 nM,–,"O=C(O)c1ccc(NC(=O)C(CC2CC2(F)F)c2ccc(-c3c(C(F)F)ccc(Cl)c3F)c[n+]2[O-])cc1 (single isomer, unassigned) [Example 77, 2-(1-((4-carboxyphenyl)amino)-3-(2,2-difluorocyclopropyl)-1-oxopropan-2-yl)-5-(3-chloro-6-(difluoromethyl)-2-fluorophenyl)pyridine 1-oxide]",–
–,–,–,"O=C(O)c1ccc(NC(=O)[C@@H](CC2CC2)c2ccc(-c3c(C(F)F)ccc(Cl)c3F)c[n+]2[O-])cc1 (mixture of isomers) [Example 23, (S)- and (R)-2-(1-((4-carboxyphenyl)amino)-3-cyclopropyl-1-oxopropan-2-yl)-5-(3-chloro-6-(difluoromethyl)-2-fluorophenyl)pyridine 1-oxide]",0.61 µM
